Measurements published in patent US9364467B2 (Salix Pharmaceuticals, Ltd, priority 2012, dated 2016).
Values after ≈ are worked out from the molar mass of the structure shown. Like-named read-outs stand apart in the source and are kept apart here.

Key:
[1] = test system: Enterococcus spp. strains; test: In vitro activity (MIC) against Enterococcus spp. strains
[2] = Screen at 10 μM against 168 targets; type: binding
[3] = target: T1, N-Formyl Peptide Receptor FPR1 (Homo sapiens, UniProt P21462); test: Radioligand binding assay, N-Formyl Peptide Receptor FPR1; details: CONC. 10 μM, hum
T1 sequence (P21462 1-350): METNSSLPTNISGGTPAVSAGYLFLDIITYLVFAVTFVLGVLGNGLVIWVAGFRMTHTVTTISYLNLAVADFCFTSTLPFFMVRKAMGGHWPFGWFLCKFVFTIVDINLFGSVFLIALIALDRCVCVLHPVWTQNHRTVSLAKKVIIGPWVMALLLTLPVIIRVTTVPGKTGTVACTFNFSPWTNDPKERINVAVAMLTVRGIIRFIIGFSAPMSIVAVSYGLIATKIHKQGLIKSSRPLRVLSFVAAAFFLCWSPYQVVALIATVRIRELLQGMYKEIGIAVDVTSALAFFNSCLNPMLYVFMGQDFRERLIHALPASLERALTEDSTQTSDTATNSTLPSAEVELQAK
Description: (§1) Methods employed in this study have been adapted from the scientific literature to maximize reliability and reproducibility. Reference standards were run as an integral part of each assay to ensure the validity of the results obtained. Assays were performed under conditions described in the accompanying “Methods” section below. The literature reference(s) for each assay are in the “Literature References” section.
(§2) Where presented, IC50 values were determined by a non-linear, least squares regression analysis using MathIQ™ (ID Business Solutions Ltd., UK). Where inhibition constants (KI) are presented, the KI values were calculated using the equation of Cheng and Prusoff (Cheng, Y., Prusoff, W. H., Biochem. Pharmacol. 22:3099-3108, 1973) using the observed IC50 of the tested compound, the concentration of radioligand employed in the assay, and the historical values for the KD of the ligand (obtained experimentally at Ricerca Biosciences, LLC). Where presented, the Hill coefficient (nH), defining the slope of the competitive binding curve, was calculated using MathIQ™. […] Where IC50, KI, and/or nH data are presented without Standard Error of the Mean (SEM), data are insufficient to be quantitative, and the values presented (KI, IC50, nH) should be interpreted with caution. […]

S. aureus = test: In vitro activity (MIC) against S. aureus strains; details: Staphylococcus aureus
Bombesin BB1 = Bombesin BB1 (Homo sapiens, UniProt P28336); test: Radioligand binding assay, Bombesin BB1; details: CONC. 10 μM, hum
Description: as §1, §2

S. epidermidis = test: In vitro activity (MIC) against S. epidermidis strains

Sequence of Bombesin BB1 (P28336 whole entry): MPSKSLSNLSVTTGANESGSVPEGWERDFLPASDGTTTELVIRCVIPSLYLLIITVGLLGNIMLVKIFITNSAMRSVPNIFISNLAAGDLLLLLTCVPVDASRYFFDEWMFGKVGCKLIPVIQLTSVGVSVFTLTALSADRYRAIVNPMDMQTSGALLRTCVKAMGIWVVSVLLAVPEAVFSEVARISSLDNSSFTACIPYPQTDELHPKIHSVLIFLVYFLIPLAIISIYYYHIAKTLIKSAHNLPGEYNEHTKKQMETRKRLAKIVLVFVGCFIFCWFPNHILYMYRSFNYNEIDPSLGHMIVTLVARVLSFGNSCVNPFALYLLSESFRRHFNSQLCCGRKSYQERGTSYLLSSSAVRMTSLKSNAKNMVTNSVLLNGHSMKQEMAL

Compound: COC1/C=C/O[C@@]2(C)Oc3c(C)c(O)c4c(O)c(c5c(c4c3C2=O)NC2C=C(C)C=CN52)NC(=O)/C(C)=C\C=C\C(C)C(O)C(C)C(O)C(C)C(O)C1C (some centres unmarked) [25-desacetyl rifaximin]
- MIC ([1]; ATCC E. faecalis 29212): 16 µg/mL (≈ 21.5 µM)
- MIC ([1]; E. faecalis 181): > 16 µg/mL
- MIC ([1]; E. faecalis 186): 4 µg/mL (≈ 5.36 µM)
- MIC ([1]; E. faecalis 187): 4 µg/mL (≈ 5.36 µM)
- MIC ([1]; E. faecalis 193): 4 µg/mL (≈ 5.36 µM)
- MIC ([1]; E. faecalis 194): > 16 µg/mL
- MIC ([1]; E. faecalis 200): > 16 µg/mL
- MIC ([1]; E. faecalis 204): 4 µg/mL (≈ 5.36 µM)
- MIC ([1]; E. faecalis 205): > 16 µg/mL
- MIC ([1]; E. faecalis 210): 4 µg/mL (≈ 5.36 µM)
- MIC ([1]; E. faecalis 227): > 16 µg/mL
- MIC ([1]; E. faecalis 228): 4 µg/mL (≈ 5.36 µM)
- MIC ([1]; E. faecalis 232): 4 µg/mL (≈ 5.36 µM)
- MIC ([1]; E. faecalis 235): > 16 µg/mL
- MIC ([1]; E. faecalis 237): 4 µg/mL (≈ 5.36 µM)
- MIC ([1]; E. faecalis 239): > 16 µg/mL
- MIC ([1]; E. faecalis 242): > 16 µg/mL
- MIC ([1]; E. faecalis 243): > 16 µg/mL
- MIC ([1]; E. faecalis 245): > 16 µg/mL
- MIC ([1]; E. faecalis 249): 4 µg/mL (≈ 5.36 µM)
- MIC ([1]; E. faecalis 250): > 16 µg/mL
- MIC ([1]; E. faecalis 251): > 16 µg/mL
- MIC ([1]; E. faecalis 255): 4 µg/mL (≈ 5.36 µM)
- MIC ([1]; E. faecium 8): 4 µg/mL (≈ 5.36 µM)
- MIC ([1]; E. faecium 13): 4 µg/mL (≈ 5.36 µM)
- MIC ([1]; E. faecium 174): > 16 µg/mL
- MIC ([1]; E. faecium 185): > 16 µg/mL
- MIC ([1]; E. faecium 188): > 16 µg/mL
- MIC ([1]; E. faecium 189): 8 µg/mL (≈ 10.7 µM)
- MIC ([1]; E. faecium 190): > 16 µg/mL
- MIC ([1]; E. faecium 191): > 16 µg/mL
- MIC ([1]; E. faecium 192): 8 µg/mL (≈ 10.7 µM)
- MIC ([1]; E. faecium 198): > 16 µg/mL
- MIC ([1]; E. faecium 199): > 16 µg/mL
- MIC ([1]; E. faecium 201): > 16 µg/mL
- MIC ([1]; E. faecium 203): 8 µg/mL (≈ 10.7 µM)
- MIC ([1]; E. faecium 207): > 16 µg/mL
- MIC ([1]; E. faecium 208): 4 µg/mL (≈ 5.36 µM)
- MIC ([1]; E. faecium 209): > 16 µg/mL
- MIC ([1]; E. faecium 212): > 16 µg/mL
- MIC ([1]; E. faecium 215): > 16 µg/mL
- MIC ([1]; E. faecium 217): 4 µg/mL (≈ 5.36 µM)
- MIC ([1]; E. faecium 221): > 16 µg/mL
- MIC ([1]; E. faecium 222): > 16 µg/mL
- MIC ([1]; E. faecium 223): > 16 µg/mL
- MIC ([1]; E. faecium 225): > 16 µg/mL
- MIC ([1]; E. faecium 229): 8 µg/mL (≈ 10.7 µM)
- MIC ([1]; E. faecium 230): 4 µg/mL (≈ 5.36 µM)
- MIC ([1]; E. faecium 231): > 16 µg/mL
- MIC ([1]; E. faecium 236): 4 µg/mL (≈ 5.36 µM)
- MIC ([1]; E. faecium 238): > 16 µg/mL
- MIC ([1]; E. faecium 240): > 16 µg/mL
- MIC ([1]; E. faecium 248): > 16 µg/mL
- MIC50 ([1]; Enterococcus): > 16 µg/mL
- MIC90 ([1]; Enterococcus): > 16 µg/mL
- MIC ([1]; Enterococcus, read-out: Mode (MIC), Enterococcus spp. strains): > 16 µg/mL
- hits (50% effect, either inhibition or stimulation) in screen against 168 targets [2]: two “hits”
- inhibition at 10 µM [3]: > 50%
- MIC (S. aureus; strain ATCC S. aureus 29213): 0.5 µg/mL (≈ 0.67 µM)
- MIC (S. aureus; strain S. aureus 215): 16 µg/mL (≈ 21.5 µM)
- MIC (S. aureus; strain S. aureus 234): 2 µg/mL (≈ 2.68 µM)
- MIC (S. aureus; strain S. aureus 236): 16 µg/mL (≈ 21.5 µM)
- MIC (S. aureus; strain S. aureus 237): 2 µg/mL (≈ 2.68 µM)
- MIC (S. aureus; strain S. aureus 238): 0.25 µg/mL (≈ 0.335 µM)
- MIC (S. aureus; strain S. aureus 246): 2 µg/mL (≈ 2.68 µM)
- MIC (S. aureus; strain S. aureus 252): 4 µg/mL (≈ 5.36 µM)
- MIC (S. aureus; strain S. aureus 253): 1 µg/mL (≈ 1.34 µM)
- MIC (S. aureus; strain S. aureus 267): 16 µg/mL (≈ 21.5 µM)
- MIC (S. aureus; strain S. aureus 272): 2 µg/mL (≈ 2.68 µM)
- MIC (S. aureus; strain S. aureus 279): 0.25 µg/mL (≈ 0.335 µM)
- MIC (S. aureus; strain S. aureus 327): 4 µg/mL (≈ 5.36 µM)
- MIC (S. aureus; strain S. aureus 328): 2 µg/mL (≈ 2.68 µM)
- MIC (S. aureus; strain S. aureus 329): 4 µg/mL (≈ 5.36 µM)
- MIC (S. aureus; strain S. aureus 339): 16 µg/mL (≈ 21.5 µM)
- MIC (S. aureus; strain S. aureus 345): 2 µg/mL (≈ 2.68 µM)
- MIC (S. aureus; strain S. aureus 355): 2 µg/mL (≈ 2.68 µM)
- MIC (S. aureus; strain S. aureus 406): > 16 µg/mL
- MIC (S. aureus; strain S. aureus 408): 2 µg/mL (≈ 2.68 µM)
- MIC (S. aureus; strain S. aureus 409): 1 µg/mL (≈ 1.34 µM)
- MIC (S. aureus; strain S. aureus 416): 2 µg/mL (≈ 2.68 µM)
- MIC (S. aureus; strain S. aureus 425): > 16 µg/mL
- MIC (S. aureus; strain S. aureus 436): 2 µg/mL (≈ 2.68 µM)
- MIC (S. aureus; strain S. aureus 475): 4 µg/mL (≈ 5.36 µM)
- inhibition at 10 µM (Bombesin BB1): > 50%
- MIC (S. epidermidis; Staphylococcus epidermidis): 0.12 µg/mL (≈ 0.161 µM)
- MIC (S. epidermidis; strain S. epidermidis 354): 0.12 µg/mL (≈ 0.161 µM)
